These results are taken from US8791303B2, “Herbicides” (Syngenta Limited, priority 2009, dated 2014).

What all share (type): in vivo
Assay [1] has as its system Avena fatua (AVEFA). In words: Example A glasshouse herbicide test, pre-emergence, AVEFA. Particulars: Rate 250 g/ha, sprayed after cultivation for one day, evaluated after 13 days; for pest or weed control at 250 g/ha: Avena fatua, pre-emergence, 312 h, read-out: Pre-Emergence Activity AVEFA (100=total damage to plant; 0=no damage to plant). As for the experimental part: (§1) Seeds of a variety of test species are sown in standard soil in pots. After cultivation for one day (pre-emergence) or after 8 days cultivation (post-emergence) under controlled conditions in a glasshouse (at 24/16° C., day/night; 14 hours light; 65% humidity), the plants are sprayed with an aqueous spray solution derived from the formulation of the technical active ingredient in acetone/water (50:50) solution containing 0.5% Tween 20 (polyoxyethelyene sorbitan monolaurate, CAS RN 9005-64-5).
(§2) The test plants are then grown in a glasshouse under controlled conditions in a glasshouse (at 24/16° C., day/night; 14 hours light; 65% humidity) and watered twice daily. After 13 days for pre and post-emergence, the test is evaluated (100=total damage to plant; 0=no damage to plant).
(§3) Lolium perenne (LOLPE), Alopecurus myosuroides (ALOMY), Echinochloa crus-galli (ECHCG), Avena fatua (AVEFA)

For assay [2], the system named is Echinochloa crus-galli (ECHCG). In words: Example A glasshouse herbicide test, post-emergence, ECHCG. To be noted: Rate 250 g/ha, sprayed after 8 days cultivation, evaluated after 13 days; for pest or weed control at 250 g/ha: Echinochloa crus-galli, post-emergence, 312 h, read-out: Post-Emergence Activity ECHCG (100=total damage to plant; 0=no damage to plant). As for the experimental part:
as §1, §2, §3

The test system of assay [3] is Avena fatua (AVEFA). As to the kind of experiment: Example A glasshouse herbicide test, post-emergence, AVEFA. Particulars: Rate 250 g/ha, sprayed after 8 days cultivation, evaluated after 13 days; for pest or weed control at 250 g/ha: Avena fatua, post-emergence, 312 h, read-out: Post-Emergence Activity AVEFA (100=total damage to plant; 0=no damage to plant). On the procedure:
as §1, §2, §3

Assay [4] concerns Alopecurus myosuroides (ALOMY). As to the kind of experiment: Example A glasshouse herbicide test, post-emergence, ALOMY. Particulars: Rate 250 g/ha, sprayed after 8 days cultivation, evaluated after 13 days; for pest or weed control at 250 g/ha: Alopecurus myosuroides, post-emergence, 312 h, read-out: Post-Emergence Activity ALOMY (100=total damage to plant; 0=no damage to plant). As for the experimental part: as §1, §2, §3

The subject of assay [5] is Lolium perenne (LOLPE). As to the kind of experiment: Example A glasshouse herbicide test, post-emergence, LOLPE. To be noted: Rate 250 g/ha, sprayed after 8 days cultivation, evaluated after 13 days; for pest or weed control at 250 g/ha: Lolium perenne, post-emergence, 312 h, read-out: Post-Emergence Activity LOLPE (100=total damage to plant; 0=no damage to plant). On the procedure:
as §1, §2, §3

In assay [6] the test system is Lolium perenne (LOLPE). In words: Example A glasshouse herbicide test, pre-emergence, LOLPE. To be noted: Rate 250 g/ha, sprayed after cultivation for one day, evaluated after 13 days; for pest or weed control at 250 g/ha: Lolium perenne, pre-emergence, 312 h, read-out: Pre-Emergence Activity LOLPE (100=total damage to plant; 0=no damage to plant). On the procedure:
as §1, §2, §3

Assay [7] relates to Alopecurus myosuroides (ALOMY). In words: Example A glasshouse herbicide test, pre-emergence, ALOMY. To be noted: Rate 250 g/ha, sprayed after cultivation for one day, evaluated after 13 days; for pest or weed control at 250 g/ha: Alopecurus myosuroides, pre-emergence, 312 h, read-out: Pre-Emergence Activity ALOMY (100=total damage to plant; 0=no damage to plant). On the procedure:
as §1, §2, §3

For assay [8], the system named is Echinochloa crus-galli (ECHCG). As to the kind of experiment: Example A glasshouse herbicide test, pre-emergence, ECHCG. Particulars: Rate 250 g/ha, sprayed after cultivation for one day, evaluated after 13 days; for pest or weed control at 250 g/ha: Echinochloa crus-galli, pre-emergence, 312 h, read-out: Pre-Emergence Activity ECHCG (100=total damage to plant; 0=no damage to plant). On the procedure: as §1, §2, §3

For “2,2-dimethyl-propionic acid 4-(4-fluoro-benzyl)-3-oxo-2-(2,4,6-trimethyl-phenyl)-cyclopent-1-enyl ester [Compound B9]”, the “Pre-Emergence Activity AVEFA (100=total damage to plant; 0=no damage to plant)” value in the assay with Avena fatua (AVEFA) [1] is given as 40. Also, in assay [2], the “Post-Emergence Activity ECHCG (100=total damage to plant; 0=no damage to plant)” value amounted to 80. Besides, in the assay with Avena fatua (AVEFA) [3], the “Post-Emergence Activity AVEFA (100=total damage to plant; 0=no damage to plant)” value was found to be 20. Besides, the “Post-Emergence Activity ALOMY (100=total damage to plant; 0=no damage to plant)” value in assay [4] was found to be 70. Also, in the assay on Lolium perenne (LOLPE) [5], the “Post-Emergence Activity LOLPE (100=total damage to plant; 0=no damage to plant)” value worked out at 80. Also, in the assay on Lolium perenne (LOLPE) [6], the “Pre-Emergence Activity LOLPE (100=total damage to plant; 0=no damage to plant)” value was 100. Also, the “Pre-Emergence Activity ALOMY (100=total damage to plant; 0=no damage to plant)” value in assay [7] amounted to 90. In assay [8], the “Pre-Emergence Activity ECHCG (100=total damage to plant; 0=no damage to plant)” value worked out at 70.

Consider `Cc1cc(C)c(C2C(=O)CC(CC3CCCCC3C)C2=O)c(C)c1` (stereo not shown) [Compound A29], for which the pest or weed control at 250 g/ha amounted to 50% with Avena fatua (AVEFA) [1]; 50% in assay [2]; 0% in the assay on Avena fatua (AVEFA) [3]; 0% in assay [4]; 90% in the assay with Lolium perenne (LOLPE) [5]; 90% in the assay on Lolium perenne (LOLPE) [6]. Also, the pest or weed control at 250 g/ha in assay [7] was determined as 50%; in assay [8] it was 90%.

`COC1CCC(/C=C2\CC(=O)C(c3c(C)cc(C)cc3C)C2=O)CC1` (stereo not shown) [Compound A39, 4-[1-(4-Methoxy-cyclohexyl)-meth-(E)-ylidene]-2-(2,4,6-trimethyl-phenyl)-cyclopentane-1,3-dione]: the pest or weed control at 250 g/ha in the assay on Avena fatua (AVEFA) [1] is 80%; in assay [2], 100%; in the assay on Avena fatua (AVEFA) [3], 90%; in assay [4], 90%; with Lolium perenne (LOLPE) [5], 50%; in the assay on Lolium perenne (LOLPE) [6], 50%. Besides, the pest or weed control at 250 g/ha came to 60% in assay [7] and 100% in assay [8].

As to `CC(=O)OC1CCC(CC2CC(=O)C(c3c(C)cc(C)cc3C)=C2OC(=O)C(C)(C)C)CC1` (stereo not shown) [Compound B4], the pest or weed control at 250 g/ha was 70% in assay [2], 80% with Avena fatua (AVEFA) [3], 60% in assay [4] and 90% in the assay with Lolium perenne (LOLPE) [5].

As for `Cc1cc(C)c(C2=C(OC(=O)C(C)(C)C)CC(Cc3cccc(Oc4ccccc4)c3)C2=O)c(C)c1` (stereo not shown) [Compound B7], the pest or weed control at 250 g/ha worked out at 0% with Avena fatua (AVEFA) [1]; 20% in assay [2]; 0% with Avena fatua (AVEFA) [3]; 20% in assay [4]; 20% in the assay with Lolium perenne (LOLPE) [5]; 20% in the assay on Lolium perenne (LOLPE) [6]. Also, the pest or weed control at 250 g/ha in assay [7] came to 30%; in assay [8] it was 0%.

In the case of `Cc1cc(C)c(C2=C(OC(=O)C(C)(C)C)CC(Cc3ccc(F)cc3)C2=O)c(C)c1` (stereo not shown) [Compound B8], the pest or weed control at 250 g/ha in the assay on Avena fatua (AVEFA) [1] turned out to be 30%; in assay [2], 40%; in the assay with Avena fatua (AVEFA) [3] it was 20%; in assay [4], 40%; with Lolium perenne (LOLPE) [5], 70%; with Lolium perenne (LOLPE) [6], 100%. Also, the values for the pest or weed control at 250 g/ha in assay [7] and in assay [8] were 70% and 50%, respectively.

`Cc1cc(C)c(C2=C(OC(=O)C(C)(C)C)CC(Cc3ccccc3C)C2=O)c(C)c1` (stereo not shown) [Compound B10]: the pest or weed control at 250 g/ha with Avena fatua (AVEFA) [1] stood at 20%; in assay [2] it was 40%; in the assay with Avena fatua (AVEFA) [3], 30%; in assay [4] it was 50%; with Lolium perenne (LOLPE) [5], 90%; with Lolium perenne (LOLPE) [6] it was 100%. The pest or weed control at 250 g/ha in assay [7] and in assay [8] was 30% throughout.
